Reference: ChEMBL document CHEMBL3046899, “2D-QSAR of non-benzodiazepines to benzodiazepines receptor (BZR)” (Med Chem Res, 2009)

Tests used:
[1] = Binding affinity to GABA-A receptor benzodiazepine site (unknown origin); set-up: species or system Homo sapiens
[2] = molecular target: GABA-A receptor; anion channel; assay: Displacement of [3H]flunitrazepam from Rattus norvegicus (rat) brain GABA-A receptor benzodiazepine site
[3] = molecular target: GABA-A receptor; anion channel; assay: Binding affinity to Rattus norvegicus (rat) brain GABA-A receptor benzodiazepine site

SMILES | pIC50 [1] | also measured
CCCCOc1cc2c(cn1)[nH]c1ccccc12 | 7.01 | –
c1ccc2c(c1)[nH]c1cnccc12 [NORHARMANE] | 5.79 | –
CC(C)(C)COC(=O)c1cc2c(cn1)[nH]c1ccccc12 | 6.12 | –
CCc1c(OC)nc2nc(C(=O)c3ccccc3)cn2c1CC | – | pIC50 [2]: 7.252
CCCC(=O)c1cc2c(cn1)[nH]c1ccccc12 | 7.64 | –
CCOC(=O)c1ncc2[nH]c3ccc(OCc4ccccc4)cc3c2c1COC | 9 | –
CCc1nc(C(=O)OC)cc2c1[nH]c1ccccc12 | 5.12 | –
CNc1nc2c(N(C)C)ncnc2n1Cc1cccc(C)c1 | – | pIC50 [3]: 5.14
CCOC(=O)c1cc2c(cn1)[nH]c1ccccc12 | 8.3 | –
S=C=Nc1cc2c(cn1)[nH]c1ccccc12 | 8.1 | –
Cc1nccc2c1[nH]c1ccccc12 [HARMAN] | 4.91 | –
COC(=O)c1cc2c(cn1)[nH]c1ccccc12 [BETA-CCM] | 8.3 | –
CCCc1c(OC)nc2nc(C(=O)c3ccccc3)cn2c1CC | – | pIC50 [2]: 7.328

Second part, led by results:

pIC50 [1] | SMILES | also measured
6.64 | CCCCc1cc2c(cn1)[nH]c1ccccc12 | –
6.29 | CC(C)Oc1cc2c(cn1)[nH]c1ccccc12 | –
5.4 | Oc1cc2c(cn1)[nH]c1ccccc12 | –
7.96 | CCCOc1cc2c(cn1)[nH]c1ccccc12 | –
8 | CC(=O)C(=O)c1cc2c(cn1)[nH]c1ccccc12 | –
6.9 | O=[N+]([O-])c1cc2c(cn1)[nH]c1ccccc12 | –
7.62 | CCOc1cc2c(cn1)[nH]c1ccccc12 | –
4.6 | Nc1cc2c(cn1)[nH]c1ccccc12 | –
7.35 | Clc1cc2c(cn1)[nH]c1ccccc12 | –
6.91 | COc1cc2c(cn1)[nH]c1ccccc12 | –
